Laboratory results published in patent publication US10363235B2, “Compositions comprising 15-HEPE and methods of treating or preventing fibrosis using same” (Afimmune Limited, priority 2014, dated 2019).
Entries after “also recorded” stand apart in the source; their conditions may differ.

Tests used:
[1] = tested on: Lung Fibroblasts from Idiopathic Pulmonary Fibrosis (IPF) patients; test: cytotoxicity in IPF lung fibroblasts; type: cell-based, human; conditions: treatment for 48 hours
[2] = 15-HEPE levels in tissues of dosed rats; type: in vivo; conditions: 500 mg/kg for 7 days, treated vs untreated control, FIG. 11
Description: Rats (n=5) were dosed with 15-HEPE (DS102) 500 mg/kg for 7 days and organs excised to analyse 15-HEPE levels in the tissues of treated vs untreated animals.

[3] = tested on: mouse model of non-alcoholic steatohepatitis (NASH); test: NASH mouse model (streptozotocin plus high fat diet), liver fibrosis, Example 2; type: in vivo, mice; conditions: 500 mg/kg orally once daily from 5 to 9 weeks of age; compared with EPA (500 mg/kg) or vehicle; FIG. 9
Description: Non-alcoholic steatohepatitis (NASH) was induced in mice by a single subcutaneous injection of 200 μg of streptozotocin (Sigma Aldrich) two days after birth and feeding with high fat diet (57 kcal % fat, CLEA Japan) after 4 weeks of age. After randomization, each mouse was orally administered vehicle, telmisartan (10 mg/kg), 15-HEPE (500 mg/kg) or EPA (500 mg/kg) once daily from 5 to 9 weeks of age. At the end of the 9th week, the mice were sacrificed and analyzed.

[4] = tested on: Lung Fibroblasts from Idiopathic Pulmonary Fibrosis (IPF) patients; test: TGF-beta induced alpha-SMA production in IPF lung fibroblasts; type: cell-based, human; conditions: 100 ug/ml; 2 hours pretreatment, then TGF beta (20 ng/ml) for 48 hours; FIG. 10
Description: Lung Fibroblasts from Idiopathic Pulmonary Fibrosis (IPF) patients were plated at 10000 cells per well in their respective growth mediums and allowed to attach overnight. After attachment, the cells were pretreated with 15(S)-HEPE for 2 hours in their respective assay mediums. After 2 hours, the cells were then treated with compounds+/−TGF beta (20 ng/ml) for 48 hours. After 48 hours, the conditioned media was collected and frozen at −80° C. for future collagen analysis. After collection, the cells were stained for SMA I expression. The collagen ELISA was performed according to the manufacturer's instructions.

[5] = tested on: mouse model of NAFLD; test: mouse model of NAFLD (streptozotocin plus high-fat diet), Example 1; type: in vivo, mice (C57/BL6); conditions: for fibrosis (histology, sirius red staining): compared to vehicle, FIGS. 7A-7D; for NAFLD Activity Score (NAS): FIGS. 8A-D
Description: The purpose of this study was to examine the effects of 15-HEPE and 15-HETrE compared to vehicle and to telmisartan in a mouse model of NAFLD.
C57/BL6 mice obtained from Charles River Laboratories were divided into 6 study groups as follows:
Group 1 (Vehicle): Twelve mice were each administered a single dose of steptozotocin after birth and fed a high-fat diet for four weeks. The mice were then fed vehicle in a volume of 10 mL/kg once daily from 5 to 12 weeks of age.
Group 2 (telmisartan): Twelve mice were each administered a single dose of steptozotocin after birth and fed a high-fat diet for four weeks. The mice were then fed telmisartan in an amount of 5 mg/kg once daily from 5 to 12 weeks of age.
Group 3 (15-HEPE, low dose): Twelve mice were each administered a single dose of steptozotocin after birth and fed a high-fat diet for four weeks. The mice were then fed 15-HEPE in an amount of 50 mg/kg once daily from 5 to 12 weeks of age.
Group 4 (15-HEPE, high dose): Twelve mice were each administered a single dose of steptozotocin after birth and fed a high-fat diet for four weeks. The mice were then fed 15-HEPE in an amount of 500 mg/kg once daily from 5 to 12 weeks of age.
Group 5 (15-HETrE, low dose): Twelve mice were each administered a single dose of steptozotocin after birth and fed a high-fat diet for four weeks. The mice were then fed 15-HETrE in an amount of 10 mg/kg once daily from 5 to 12 weeks of age.
Group 6 (15-HETrE, high dose): Twelve mice were administered a single dose of steptozotocin after birth and fed a high-fat diet for four weeks. The mice were then fed 15-HETrE in an amount of 100 mg/kg once daily from 5 to 12 weeks of age.
At 12 weeks of age, all mice were assessed for changes in: • serum biochemistry (e.g., ALT levels, LDL levels, VLDL levels, HDL levels, triglyceride levels, total cholesterol level), • fibrosis (e.g., histology using sirius red staining), and • NAFLD activity score (including, e.g., H&E staining histology). Results

[6] = telmisartan 5 mg/kg once daily from 5 to 12 weeks of age, vs vehicle

For `CCC=CCC(O)C=CC=CCC=CCC=CCCCC(=O)O` (stereo not shown) [15-HEPE, 15-Hydroxy-eicosa-5,8,11,13,17-pentaenoic acid], which cytotoxicity [1] is on record?
The cytotoxicity was “No cytotoxicity”.

What about the “15-HEPE level in the liver” value [2] of the same compound?
The value was “significantly more”.

And the “15-HEPE level in the lung” value [2]?
Its value is “significantly more”.

What about the “treating and/or preventing liver fibrosis” value [3] of the same compound?
The value was “more effective”.

And the “TGF-beta induced alpha-SMA production” value [4]?
The value was “inhibited; also recorded: inhibition”.

What about the “fibrosis (histology, sirius red staining)” value ([5]; high-dose 15-HEPE 500 mg/kg once daily from 5 to 12 weeks of age, equivalent to telmisartan) of the same compound?
The value was “statistically equivalent low amount of fibrosis”.

What about the “plasma ALT levels” value ([5]; high-dose 15-HEPE 500 mg/kg once daily from 5 to 12 weeks of age, vs high-dose 15-HETrE group (100 mg/kg), FIG. 6) of the same compound?
The value was “significantly lower”.

What about the “NAFLD Activity Score (NAS)” value ([5]; high-dose 15-HEPE 500 mg/kg once daily from 5 to 12 weeks of age, vs placebo (vehicle), p<0.01) of the same compound?
Its value is “significantly lower”.

What about the “plasma ALT levels” value ([5]; high-dose 15-HEPE 500 mg/kg once daily from 5 to 12 weeks of age, vs vehicle, FIG. 6) of the same compound?
The value was “significantly lower”.

What about the Total cholesterol levels ([5]; low-dose 15-HEPE 50 mg/kg once daily from 5 to 12 weeks of age, vs vehicle, FIG. 4) of the same compound?
The Total cholesterol levels was “significantly lower”.

Which serum triglycerides ([5]; low-dose 15-HETrE 10 mg/kg once daily from 5 to 12 weeks of age, vs vehicle (Mann Whitney), FIG. 1) does the source give for `CCCCCC(O)/C=C/C=C\C/C=C\CCCCCCC(=O)O` (stereo not shown) [15-HETrE, 15-hydroxyeicosa-8(Z),11(Z),13(E)-trienoic acid] here?
The serum triglycerides was “significantly lower”.

And the VLDL levels ([5]; low-dose 15-HETrE 10 mg/kg once daily from 5 to 12 weeks of age, vs vehicle, FIG. 2)?
The VLDL levels was “significantly lower”.

What about the LDL levels ([5]; low-dose 15-HETrE 10 mg/kg once daily from 5 to 12 weeks of age, vs vehicle, FIG. 3) of the same compound?
The LDL levels was “significantly lower”.

What about the Total cholesterol levels ([5]; low-dose 15-HETrE 10 mg/kg once daily from 5 to 12 weeks of age, vs vehicle, FIG. 4) of the same compound?
Its Total cholesterol levels is “significantly lower”.

Which “fibrosis (histology, sirius red staining)” value ([5]; telmisartan 5 mg/kg once daily from 5 to 12 weeks of age) does the source give for `CCCc1nc2c(C)cc(-c3nc4ccccc4n3C)cc2n1Cc1ccc(-c2ccccc2C(=O)O)cc1` [telmisartan, 2-(4-{[4-Methyl-6-(1-methyl-1H-1,3-benzodiazol-2-yl)-2-propyl-1H-1,3-benzodiazol-1-yl]methyl}phenyl)benzoic acid] here?
The value was “low amount of fibrosis”.

What about the Hydroxyproline levels [5, 6] of the same compound?
The Hydroxyproline levels was “did not show statistically significant reductions”.

And the LDL levels [5, 6]?
The LDL levels was “did not show statistically significant reductions”.

What about the Total cholesterol levels [5, 6] of the same compound?
Its Total cholesterol levels is “did not show statistically significant reductions”.

What about the VLDL levels [5, 6] of the same compound?
The VLDL levels was “did not show statistically significant reductions”.

What about the “plasma ALT levels” value [5, 6] of the same compound?
The value was “did not show statistically significant reductions”.

And the serum triglycerides [5, 6]?
The serum triglycerides was “did not show statistically significant reductions”.

And the “NAFLD Activity Score (NAS)” value ([5]; telmisartan 5 mg/kg once daily from 5 to 12 weeks of age, vs vehicle, p<0.001)?
Its value is “significantly lower”.
